Columns and labels:
Conditions in all cases: exposure time: 72 h
[1] = test system: E34 (patient-derived glioblastoma stem cells of proneural subtype); assay: phenotypic distance (Euclidean, principal components) from DMSO controls (arbitrary units); higher = stronger morphological change
[2] = test system: E21 (patient-derived glioblastoma stem cells of mesenchymal subtype); assay: as above
[3] = test system: FT3469 (normal neural stem cell line); assay: as above
[4] = test system: E57 (patient-derived glioblastoma stem cells of mesenchymal subtype); assay: as above
[5] = test system: E31 (patient-derived glioblastoma stem cells of proneural subtype); assay: as above
[6] = test system: E13 (patient-derived glioblastoma stem cells of classical subtype); assay: as above
[7] = test system: E28 (patient-derived glioblastoma stem cells of classical subtype); assay: as above
[8] = test system: E34; assay: surviving fraction (nuclei count normalised to DMSO); higher = more cells surviving (less toxic)
[9] = test system: E21; assay: as above
[10] = test system: FT3469; assay: as above
[11] = test system: E57; assay: as above
[12] = test system: E31; assay: as above
[13] = test system: E13; assay: as above
[14] = test system: E28; assay: as above
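Throughout, for phenotypic distance (Euclidean, principal components) from DMSO controls: cell Painting imaging in 384-well plates, CellProfiler features reduced to at least 20 principal components, Euclidean distance versus same-plate DMSO vehicle wells (0.1% v/v), median over six images per well.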
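Throughout, for surviving fraction (nuclei count normalised to DMSO): nuclei counted by high-content imaging of Hoechst-stained cells in laminin-coated 384-well plates, relative to 0.1% DMSO vehicle wells, with staurosporine as cell-death control.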

CC(C)C[C@H](NC(=O)[C@H](Cc1ccccc1)NC(=O)c1cnccn1)B(O)O [Bortezomib]
Conditions | phenotypic distance | surviving fraction
[1], 4.11523 nM | 10.2 | –
[1], 12.34567901 nM | 9.58 | –
[1], 37.037 nM | 13.4 | –
[1], 111.1111111 nM | 13.5 | –
[1], 333.333 nM | 13.9 | –
[1], 1000 nM | 12.6 | –
[1], 3000 nM | 12.6 | –
[2], 4.11523 nM | 10.7 | –
[2], 12.34567901 nM | 17.6 | –
[2], 37.037 nM | 18.1 | –
[2], 111.1111111 nM | 23.9 | –
[2], 333.333 nM | 14.3 | –
[2], 1000 nM | 18.7 | –
[2], 3000 nM | 23.7 | –
[3], 4.11523 nM | 5.9 | –
[3], 12.34567901 nM | 7.61 | –
[3], 37.037 nM | 8.16 | –
[3], 111.1111111 nM | 8 | –
[3], 333.333 nM | 7.22 | –
[3], 1000 nM | 8.26 | –
[3], 3000 nM | 6 | –
[4], 4.11523 nM | 10.4 | –
[4], 12.34567901 nM | 15.6 | –
[4], 37.037 nM | 11.2 | –
[4], 111.1111111 nM | 10.8 | –
[4], 333.333 nM | 12.5 | –
[4], 1000 nM | 12.2 | –
[4], 3000 nM | 9.88 | –
[5], 4.11523 nM | 8.53 | –
[5], 12.34567901 nM | 10.1 | –
[5], 37.037 nM | 10.2 | –
[5], 111.1111111 nM | 21.4 | –
[5], 333.333 nM | 11.7 | –
[5], 1000 nM | 17.1 | –
[5], 3000 nM | 12.6 | –
[6], 4.11523 nM | 16.9 | –
[6], 12.34567901 nM | 2.3 | –
[6], 37.037 nM | 17.1 | –
[6], 111.1111111 nM | 12 | –
[6], 333.333 nM | 14.2 | –
[6], 1000 nM | 13.5 | –
[6], 3000 nM | 21.9 | –
[7], 4.11523 nM | 5.69 | –
[7], 12.34567901 nM | 4.88 | –
[7], 37.037 nM | 6.77 | –
[7], 111.1111111 nM | 5.66 | –
[7], 333.333 nM | 5.33 | –
[7], 1000 nM | 6.17 | –
[7], 3000 nM | 5.47 | –
[8], 4.11523 nM | – | 0.0594
[8], 12.34567901 nM | – | 0.0507
[8], 37.037 nM | – | 0.0385
[8], 111.1111111 nM | – | 0.0332
[8], 333.333 nM | – | 0.035
[8], 1000 nM | – | 0.0227
[8], 3000 nM | – | 0.0385
[9], 4.11523 nM | – | 0.00595
[9], 12.34567901 nM | – | 0.00198
[9], 37.037 nM | – | 0.000991
[9], 111.1111111 nM | – | 0.000991
[9], 333.333 nM | – | 0.00297
[9], 1000 nM | – | 0.00198
[9], 3000 nM | – | 0
[10], 4.11523 nM | – | 0.207
[10], 12.34567901 nM | – | 0.193
[10], 37.037 nM | – | 0.233
[10], 111.1111111 nM | – | 0.161
[10], 333.333 nM | – | 0.158
[10], 1000 nM | – | 0.121
[10], 3000 nM | – | 0.104
[11], 4.11523 nM | – | 0.00967
[11], 12.34567901 nM | – | 0.00153
[11], 37.037 nM | – | 0.00662
[11], 111.1111111 nM | – | 0.00611
[11], 333.333 nM | – | 0.00255
[11], 1000 nM | – | 0.00305
[11], 3000 nM | – | 0.00611
[12], 4.11523 nM | – | 0.00325
[12], 12.34567901 nM | – | 0.0114
[12], 37.037 nM | – | 0.00651
[12], 111.1111111 nM | – | 0
[12], 333.333 nM | – | 0.00163
[12], 1000 nM | – | 0
[12], 3000 nM | – | 0.00163
[13], 4.11523 nM | – | 0.00185
[13], 12.34567901 nM | – | 0.551
[13], 37.037 nM | – | 0.000925
[13], 111.1111111 nM | – | 0.0074
[13], 333.333 nM | – | 0.000925
[13], 1000 nM | – | 0.00185
[13], 3000 nM | – | 0
[14], 4.11523 nM | – | 0.0619
[14], 12.34567901 nM | – | 0.0854
[14], 37.037 nM | – | 0.0576
[14], 111.1111111 nM | – | 0.0896
[14], 333.333 nM | – | 0.0747
[14], 1000 nM | – | 0.0576
[14], 3000 nM | – | 0.105

Reference: the supplement of paper PMC13207355
